Data taken from doi:10.1101/534982v1 (biorxiv, 2019).

How the values were obtained:
Test in all cases: fluorescence reverse titration
actin binding domain = actin binding domain (Homo sapiens, UniProt P11277)
SH3 domain = target: T1, SH3 domain (Homo sapiens, UniProt P02549); assay type: binding
T1 sequence (P02549 973-1055): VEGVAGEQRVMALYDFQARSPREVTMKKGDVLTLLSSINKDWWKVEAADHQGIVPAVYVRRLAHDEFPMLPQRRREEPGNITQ

α-tetramerization domain = target: T2, α-tetramerization domain (Homo sapiens, UniProt P02549); assay type: binding
T2 sequence (P02549 1-158): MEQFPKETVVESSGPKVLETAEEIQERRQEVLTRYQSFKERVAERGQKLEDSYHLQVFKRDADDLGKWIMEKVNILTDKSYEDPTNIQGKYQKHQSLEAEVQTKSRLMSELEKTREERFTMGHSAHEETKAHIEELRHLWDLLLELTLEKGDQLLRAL

[1] = target: T3, Self-association domain (reconstituted) (Homo sapiens, UniProt P02549+P11277); assay type: binding
T3 sequence (P02549 1-158): T2 sequence (P02549 1-158)
T3 sequence (P11277 1895-2137): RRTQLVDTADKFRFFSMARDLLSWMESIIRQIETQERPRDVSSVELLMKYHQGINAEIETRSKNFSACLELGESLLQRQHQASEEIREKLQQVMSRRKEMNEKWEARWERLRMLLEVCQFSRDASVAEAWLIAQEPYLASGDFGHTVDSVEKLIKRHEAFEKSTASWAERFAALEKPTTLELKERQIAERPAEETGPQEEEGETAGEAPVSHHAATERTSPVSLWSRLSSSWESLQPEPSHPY

ankyrin binding domain = target: T4, ankyrin binding domain (Homo sapiens, UniProt P11277)
T4 sequence (P11277 1657-1876): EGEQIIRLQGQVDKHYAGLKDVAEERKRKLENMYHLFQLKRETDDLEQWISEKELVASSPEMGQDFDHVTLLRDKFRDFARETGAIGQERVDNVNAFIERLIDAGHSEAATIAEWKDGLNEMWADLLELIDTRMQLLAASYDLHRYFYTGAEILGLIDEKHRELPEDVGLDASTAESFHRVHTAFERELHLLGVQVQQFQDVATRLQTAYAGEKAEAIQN

α-dimerization domain = target: T5, α-dimerization domain (Homo sapiens, UniProt P02549); assay type: binding
T5 sequence (P02549 2002-2233): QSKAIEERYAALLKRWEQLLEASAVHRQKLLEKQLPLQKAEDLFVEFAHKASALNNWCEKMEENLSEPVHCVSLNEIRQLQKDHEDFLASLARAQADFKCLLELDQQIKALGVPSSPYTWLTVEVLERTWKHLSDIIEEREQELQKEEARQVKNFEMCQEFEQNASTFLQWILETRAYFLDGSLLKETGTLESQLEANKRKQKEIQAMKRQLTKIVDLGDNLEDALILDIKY

β-tetramerization domain = target: T6, β-tetramerization domain (Homo sapiens, UniProt P11277); assay type: binding
T6 sequence (P11277 1895-2137): T3 sequence (P11277 1895-2137)

spectrin repeat domain = target: T7, spectrin repeat domain (Homo sapiens, UniProt P02549); assay type: binding
T7 sequence (P02549 1470-1576): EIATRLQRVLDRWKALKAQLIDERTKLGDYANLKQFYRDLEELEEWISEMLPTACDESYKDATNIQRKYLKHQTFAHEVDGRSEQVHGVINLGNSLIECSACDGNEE

β-dimerization domain = β-dimerization domain (Homo sapiens, UniProt P11277); assay type: binding
[2] = target: Spectrin (dimeric human erythroid spectrin) (Homo sapiens, UniProt P02549+P11277); assay type: binding
Spectrin (dimeric human erythroid spectrin), sequence (P02549 whole entry): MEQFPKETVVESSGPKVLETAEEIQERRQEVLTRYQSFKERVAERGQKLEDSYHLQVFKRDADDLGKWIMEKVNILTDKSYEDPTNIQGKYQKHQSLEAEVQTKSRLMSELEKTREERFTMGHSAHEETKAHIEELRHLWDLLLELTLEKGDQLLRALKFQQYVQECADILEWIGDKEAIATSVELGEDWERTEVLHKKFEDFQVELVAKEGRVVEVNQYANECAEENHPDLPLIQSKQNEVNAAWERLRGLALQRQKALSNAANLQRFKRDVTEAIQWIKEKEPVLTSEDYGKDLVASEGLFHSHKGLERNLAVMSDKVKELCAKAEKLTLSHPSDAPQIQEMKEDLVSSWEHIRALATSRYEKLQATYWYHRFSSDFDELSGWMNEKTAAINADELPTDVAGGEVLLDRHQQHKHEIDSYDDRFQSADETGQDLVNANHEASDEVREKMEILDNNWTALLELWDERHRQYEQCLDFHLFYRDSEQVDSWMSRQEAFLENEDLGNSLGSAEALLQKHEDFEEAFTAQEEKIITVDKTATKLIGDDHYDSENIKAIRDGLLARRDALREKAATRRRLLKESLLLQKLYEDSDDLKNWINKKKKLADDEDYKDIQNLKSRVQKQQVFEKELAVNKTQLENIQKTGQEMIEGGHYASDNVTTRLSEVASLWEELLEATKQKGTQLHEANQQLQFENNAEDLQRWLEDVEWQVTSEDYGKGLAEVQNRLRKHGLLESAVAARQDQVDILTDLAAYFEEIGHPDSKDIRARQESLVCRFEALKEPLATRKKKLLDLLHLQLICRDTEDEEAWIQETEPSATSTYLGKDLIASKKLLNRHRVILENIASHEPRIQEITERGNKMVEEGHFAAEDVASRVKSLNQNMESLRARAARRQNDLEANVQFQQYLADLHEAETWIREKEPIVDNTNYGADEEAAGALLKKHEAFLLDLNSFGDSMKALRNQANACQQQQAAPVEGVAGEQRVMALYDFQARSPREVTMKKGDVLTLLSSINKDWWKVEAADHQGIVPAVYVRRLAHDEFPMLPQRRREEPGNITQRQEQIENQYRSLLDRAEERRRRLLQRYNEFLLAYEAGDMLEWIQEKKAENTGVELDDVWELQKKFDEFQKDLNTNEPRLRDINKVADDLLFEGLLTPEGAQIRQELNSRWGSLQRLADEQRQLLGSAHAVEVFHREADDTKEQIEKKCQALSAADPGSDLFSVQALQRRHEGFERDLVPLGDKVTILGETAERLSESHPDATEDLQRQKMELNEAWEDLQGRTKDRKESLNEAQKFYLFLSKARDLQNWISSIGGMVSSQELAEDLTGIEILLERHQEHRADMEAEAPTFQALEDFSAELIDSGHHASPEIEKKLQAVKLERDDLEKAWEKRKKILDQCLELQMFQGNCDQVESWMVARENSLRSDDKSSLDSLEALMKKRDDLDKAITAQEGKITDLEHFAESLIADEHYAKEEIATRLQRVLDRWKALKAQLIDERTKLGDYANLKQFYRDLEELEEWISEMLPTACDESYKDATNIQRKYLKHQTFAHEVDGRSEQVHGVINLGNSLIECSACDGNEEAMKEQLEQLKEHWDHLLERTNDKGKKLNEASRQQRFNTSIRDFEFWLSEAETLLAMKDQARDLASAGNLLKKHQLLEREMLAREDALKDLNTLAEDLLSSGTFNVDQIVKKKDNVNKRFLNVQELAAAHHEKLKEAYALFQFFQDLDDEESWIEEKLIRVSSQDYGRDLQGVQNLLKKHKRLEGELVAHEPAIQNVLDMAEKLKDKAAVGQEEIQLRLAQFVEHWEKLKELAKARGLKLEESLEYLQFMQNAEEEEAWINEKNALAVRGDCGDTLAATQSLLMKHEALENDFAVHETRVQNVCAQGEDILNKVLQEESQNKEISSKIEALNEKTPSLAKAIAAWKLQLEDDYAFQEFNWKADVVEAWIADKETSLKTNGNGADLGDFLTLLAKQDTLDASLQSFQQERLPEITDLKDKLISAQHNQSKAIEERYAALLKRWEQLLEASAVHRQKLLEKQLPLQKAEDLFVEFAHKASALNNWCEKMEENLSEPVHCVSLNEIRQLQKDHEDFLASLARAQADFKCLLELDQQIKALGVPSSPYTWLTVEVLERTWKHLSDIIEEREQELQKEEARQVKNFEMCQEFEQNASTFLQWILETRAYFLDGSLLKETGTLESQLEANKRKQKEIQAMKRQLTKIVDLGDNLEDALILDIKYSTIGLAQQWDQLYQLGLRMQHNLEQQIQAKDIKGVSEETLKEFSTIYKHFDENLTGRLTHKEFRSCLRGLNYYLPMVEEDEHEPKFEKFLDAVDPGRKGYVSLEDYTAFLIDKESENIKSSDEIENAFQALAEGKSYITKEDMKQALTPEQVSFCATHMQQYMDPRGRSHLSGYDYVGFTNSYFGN
Spectrin (dimeric human erythroid spectrin), sequence (P11277 2-2137): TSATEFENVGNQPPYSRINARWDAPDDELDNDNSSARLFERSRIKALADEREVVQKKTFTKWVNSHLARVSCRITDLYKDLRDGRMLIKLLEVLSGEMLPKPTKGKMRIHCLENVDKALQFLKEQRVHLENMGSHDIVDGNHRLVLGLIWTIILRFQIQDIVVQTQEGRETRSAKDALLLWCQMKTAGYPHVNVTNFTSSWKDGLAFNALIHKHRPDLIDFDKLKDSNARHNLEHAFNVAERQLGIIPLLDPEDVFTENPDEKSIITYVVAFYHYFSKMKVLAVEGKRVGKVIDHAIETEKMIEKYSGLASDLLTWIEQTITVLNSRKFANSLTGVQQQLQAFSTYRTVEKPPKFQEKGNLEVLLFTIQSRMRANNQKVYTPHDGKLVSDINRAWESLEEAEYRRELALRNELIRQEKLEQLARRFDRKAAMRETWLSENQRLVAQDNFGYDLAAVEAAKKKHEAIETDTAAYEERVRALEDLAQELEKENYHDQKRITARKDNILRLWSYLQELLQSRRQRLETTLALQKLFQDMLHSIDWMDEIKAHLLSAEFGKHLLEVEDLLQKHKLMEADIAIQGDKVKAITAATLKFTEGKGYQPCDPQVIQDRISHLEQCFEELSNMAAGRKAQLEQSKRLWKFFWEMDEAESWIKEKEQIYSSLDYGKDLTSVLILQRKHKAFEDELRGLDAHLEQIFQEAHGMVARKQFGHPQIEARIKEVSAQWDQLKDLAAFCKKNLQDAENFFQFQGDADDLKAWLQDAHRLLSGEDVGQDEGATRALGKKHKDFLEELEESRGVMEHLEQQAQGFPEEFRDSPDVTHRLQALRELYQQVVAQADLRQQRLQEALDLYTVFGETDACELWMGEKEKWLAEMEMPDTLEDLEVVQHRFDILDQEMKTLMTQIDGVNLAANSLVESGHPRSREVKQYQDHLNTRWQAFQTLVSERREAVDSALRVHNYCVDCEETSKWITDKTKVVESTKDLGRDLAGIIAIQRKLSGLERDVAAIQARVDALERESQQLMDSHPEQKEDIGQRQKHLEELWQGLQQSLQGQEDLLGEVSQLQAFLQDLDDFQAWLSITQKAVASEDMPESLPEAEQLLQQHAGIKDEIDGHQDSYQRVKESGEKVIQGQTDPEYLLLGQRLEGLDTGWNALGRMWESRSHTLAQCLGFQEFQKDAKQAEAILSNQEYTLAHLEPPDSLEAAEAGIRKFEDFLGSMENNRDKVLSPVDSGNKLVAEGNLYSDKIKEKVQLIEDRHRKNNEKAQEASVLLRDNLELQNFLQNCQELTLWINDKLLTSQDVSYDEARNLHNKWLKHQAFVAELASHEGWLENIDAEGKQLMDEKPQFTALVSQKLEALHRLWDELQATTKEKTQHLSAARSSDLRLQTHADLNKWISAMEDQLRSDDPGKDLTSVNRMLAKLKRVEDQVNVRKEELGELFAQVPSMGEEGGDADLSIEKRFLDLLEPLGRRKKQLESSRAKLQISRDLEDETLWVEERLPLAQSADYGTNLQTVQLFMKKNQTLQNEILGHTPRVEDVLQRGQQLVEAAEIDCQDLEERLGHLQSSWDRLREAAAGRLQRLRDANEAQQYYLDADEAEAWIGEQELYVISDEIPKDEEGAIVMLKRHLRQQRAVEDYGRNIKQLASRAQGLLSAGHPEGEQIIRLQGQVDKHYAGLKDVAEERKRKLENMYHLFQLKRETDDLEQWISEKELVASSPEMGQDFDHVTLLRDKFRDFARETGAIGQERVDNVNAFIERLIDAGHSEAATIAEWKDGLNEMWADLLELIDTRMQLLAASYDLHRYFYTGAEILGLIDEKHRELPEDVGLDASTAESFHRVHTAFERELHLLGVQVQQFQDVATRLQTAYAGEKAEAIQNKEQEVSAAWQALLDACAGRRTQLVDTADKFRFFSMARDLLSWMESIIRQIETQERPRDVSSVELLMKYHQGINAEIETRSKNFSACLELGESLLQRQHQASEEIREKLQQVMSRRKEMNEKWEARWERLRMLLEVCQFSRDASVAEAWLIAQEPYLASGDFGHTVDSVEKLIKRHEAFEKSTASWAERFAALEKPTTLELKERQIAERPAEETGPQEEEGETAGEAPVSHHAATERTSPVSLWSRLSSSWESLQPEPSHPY

actin binding domain, sequence (P11277 1-316): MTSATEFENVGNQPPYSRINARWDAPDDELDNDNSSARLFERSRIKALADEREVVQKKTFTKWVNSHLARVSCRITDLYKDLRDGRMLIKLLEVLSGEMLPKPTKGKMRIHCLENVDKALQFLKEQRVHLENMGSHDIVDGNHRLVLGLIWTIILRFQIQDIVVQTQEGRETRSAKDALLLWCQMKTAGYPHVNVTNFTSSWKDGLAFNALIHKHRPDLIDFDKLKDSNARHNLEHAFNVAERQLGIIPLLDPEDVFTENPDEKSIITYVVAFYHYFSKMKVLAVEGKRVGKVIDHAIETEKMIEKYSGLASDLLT
β-dimerization domain, sequence (P11277 271-500): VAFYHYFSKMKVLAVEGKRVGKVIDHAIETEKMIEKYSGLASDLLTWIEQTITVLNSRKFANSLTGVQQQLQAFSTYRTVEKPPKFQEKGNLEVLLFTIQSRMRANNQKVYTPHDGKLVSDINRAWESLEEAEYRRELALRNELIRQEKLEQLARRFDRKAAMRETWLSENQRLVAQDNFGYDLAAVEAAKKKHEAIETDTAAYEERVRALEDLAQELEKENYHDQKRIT

`O=S(=O)(O)c1cccc2cccc(Nc3ccccc3)c12` [ANS, 1-anilinonaphthalene-8-sulfonic acid] showed a Kd (actin binding domain) of 64.3 ± 3.9 µM, a Kd (SH3 domain) of 64 ± 2.7 µM and a Kd (α-tetramerization domain) of 45.4 ± 3.1 µM. The Kd [1] was 38.9 ± 2.3 µM, the Kd (ankyrin binding domain) was 40 ± 2.8 µM and the Kd (α-dimerization domain) was 51.5 ± 3.2 µM. For the same compound, the Kd (β-tetramerization domain) was 48.2 ± 3.3 µM, the Kd (spectrin repeat domain) was 47.7 ± 2.9 µM and the Kd (β-dimerization domain) was 37.2 ± 3.1 µM. It also gave a Kd [2] of 30.1 ± 2 µM.
